The record followed here is ChEMBL document CHEMBL3232753, “Synthesis and in vitro cytotoxic effect of 6-amino-substituted 11H- and 11Me-indolo[3,2-c]quinolines” (Eur J Med Chem, 2014).

Experiment [1] deals with MV4-11. In words: Cytotoxicity against human MV4-11 cells assessed as cell viability after 72 hrs by MTT assay. Particulars: MV4-11, 72 h. The class given is functional, cell-based.
The subject of experiment [2] is BALB/3T3. In words: Cytotoxicity against mouse BALB/3T3 cells assessed as cell viability after 72 hrs by SRB assay. It is filed as cell-based. Particulars: BALB/3T3, 72 h. Background: The SRB assay estimates cell density from bound dye.
Experiment [3] relates to A549. In words: Cytotoxicity against human A549 cells assessed as cell viability after 72 hrs by SRB assay. Particulars: A549, 72 h. It is filed as functional, cell-based.
In experiment [4] the test system is HCT-116. In words: Cytotoxicity against human HCT116 cells assessed as cell viability after 72 hrs by SRB assay. It is filed as functional, cell-based. Particulars: HCT-116, 72 h.
The subject of experiment [5] is Salmonidae. In words: Binding affinity to Salmon fish sperm DNA by UV-visible spectroscopy.
Experiment [6] relates to HCT-116. In words: Selectivity ratio of IC50 for human MV4-11 cells to IC50 for human HCT116 cells. The class given is functional.
The subject of experiment [7] is A549. In words: Selectivity ratio of IC50 for human A549 cells to IC50 for human HCT116 cells. It is filed as functional.

What is called IC50 is the point on the concentration scale where inhibition reaches its midpoint.

In the case of `c1ccc2c(c1)nc(NCC1CCCO1)c1c3ccccc3[nH]c21` (configuration not stated), the IC50 in experiment [1] came to 750 nM; in experiment [2], 3040 nM; in experiment [3] it was 1400 nM; in experiment [4] it was 1280 nM.
For `c1ccc(Nc2nc3ccccc3c3[nH]c4ccccc4c23)cc1`, the IC50 in experiment [1] came to 8370 nM.
Take `c1ccc2c(c1)nc(N1CCCNCC1)c1c3ccccc3[nH]c21`: the IC50 in experiment [1] stood at 850 nM; in experiment [2], 10100 nM; in experiment [3] it was 2460 nM; in experiment [4], 1730 nM.
As for `NCCCNc1nc2ccc([N+](=O)[O-])cc2c2[nH]c3ccccc3c12`, the IC50 in experiment [1] is 150 nM; in experiment [2] it was 360 nM; in experiment [3], 350 nM; in experiment [4] it was 100 nM.
With `Cn1c2ccccc2c2c(NCCCN)nc3ccc(Br)cc3c21`, the IC50 in experiment [1] is 430 nM.
In the case of `CN(C)CCCNc1nc2ccccc2c2[nH]c3ccccc3c12`, the IC50 in experiment [1] came to 410 nM; in experiment [2] it was 1180 nM; in experiment [3], 870 nM; in experiment [4] it was 550 nM. The same molecule returned a K in experiment [5] of 1.05 ×10⁶ L/mol.
`NCCCNc1nc2cccc(Br)c2c2[nH]c3ccccc3c12`: the IC50 in experiment [1] came out at 600 nM.
For the molecule `Cn1c2ccccc2c2c(NCCCN)nc3ccc(Cl)cc3c21`, the IC50 in experiment [1] is 120 nM; in experiment [2], 940 nM; in experiment [3], 730 nM; in experiment [4], 110 nM.
Turning to `COc1ccc(Nc2nc3ccccc3c3[nH]c4ccccc4c23)c(OC)c1`, in experiment [1], the IC50 was 7280 nM.
Consider `Cc1ccc2nc(NCCCN)c3c4ccccc4n(C)c3c2c1`, for which the IC50 is 90 nM in experiment [1], 420 nM in experiment [2], 140 nM in experiment [3] and 70 nM in experiment [4].
Turning to `NCCCN1CCN(CCCNc2nc3ccccc3c3[nH]c4ccccc4c23)CC1`, the half-maximal inhibitory concentration (IC50) in experiment [1] was 390 nM; in experiment [2], 1150 nM; in experiment [3], 760 nM; in experiment [4] it was 980 nM.
`CN1CCCN(c2nc3ccccc3c3[nH]c4ccccc4c23)CC1`: the IC50 is 740 nM in experiment [1], 8960 nM in experiment [2], 1970 nM in experiment [3] and 1650 nM in experiment [4].
Take `CN1CCCN(c2nc3ccccc3c3c2c2ccccc2n3C)CC1`: the IC50 in experiment [1] was 960 nM.
On the same count and under the same terms, as for `Cn1c2ccccc2c2c(Cl)nc3ccccc3c21`, the figure is 16600 nM.
Consider `COc1ccc2nc(NCCCN)c3c4ccccc4[nH]c3c2c1`, for which the IC50 came to 120 nM in experiment [1], 310 nM in experiment [2], 160 nM in experiment [3] and 70 nM in experiment [4]. Moreover, the “Ratio IC50” value in experiment [6] is on record as 8.
For the molecule `Cn1c2ccccc2c2c(NCC(C)(C)CN)nc3ccc(Br)cc3c21`, the concentration for half-maximal inhibition (IC50) in experiment [1] is 500 nM.
The same measure, in the same setting: as for `Clc1nc2ccccc2c2[nH]c3ccccc3c12`, the figure is 9140 nM.
In the case of `CN(C)CCCNc1nc2ccccc2c2c1c1ccccc1n2C`, the IC50 was found to be 140 nM in experiment [1], 780 nM in experiment [2], 140 nM in experiment [3] and 200 nM in experiment [4].
On to `CN(C)CCCNc1nc2ccc(Br)cc2c2c1c1ccccc1n2C`, for which the IC50 in experiment [1] came out at 390 nM.
As for `NCCCNc1nc2ccc(F)cc2c2[nH]c3ccccc3c12`, the IC50 in experiment [1] came out at 590 nM.
Regarding `OCCNc1nc2ccccc2c2[nH]c3ccccc3c12`, the IC50 was 440 nM in experiment [1], 830 nM in experiment [2], 1450 nM in experiment [3] and 190 nM in experiment [4]. In experiment [7], the “Ratio IC50” value is reported as 7.
As to `NCCCCCNc1nc2ccccc2c2[nH]c3ccccc3c12`, the IC50 was found to be 610 nM in experiment [1], 1010 nM in experiment [2], 1050 nM in experiment [3] and 1060 nM in experiment [4].
On the same counts, the results for `Cn1c2ccccc2c2c(NCCCN)nc3ccc([N+](=O)[O-])cc3c21` are 50 nM, 80 nM, 110 nM and 10 nM.
Take `CCN(CC)CCCC(C)Nc1nc2ccc(Cl)cc2c2c1c1ccccc1n2C` (configuration not stated): the IC50 in experiment [1] worked out at 570 nM.
For the molecule `Cn1c2ccccc2c2c(NCCCNC(=O)Nc3ccccc3)nc3ccccc3c21`, the half-maximal inhibitory concentration (IC50) in experiment [1] was 570 nM; in experiment [2], 6110 nM; in experiment [3] it was 1190 nM; in experiment [4], 820 nM.
Turning to `CC(C)(CN)CNc1nc2ccc(Cl)cc2c2[nH]c3ccccc3c12`, in experiment [1], the IC50 was 590 nM.
Take `NCCCCCCNc1nc2ccccc2c2[nH]c3ccccc3c12`: the IC50 amounted to 710 nM in experiment [1], 1070 nM in experiment [2], 1060 nM in experiment [3] and 1080 nM in experiment [4].
Take `Cn1c2ccccc2c2c(NCC(C)(C)CN)nc3ccc(Cl)cc3c21`: in experiment [1], the IC50 was 560 nM.
Take `Cn1c2ccccc2c2c(NCC(C)(C)CN)nc3ccccc3c21`: the IC50 in experiment [1] stood at 150 nM; in experiment [2], 700 nM; in experiment [3], 540 nM; in experiment [4], 130 nM.
For `Cc1ccc2nc(NCCCN)c3c4ccccc4[nH]c3c2c1`, the IC50 in experiment [1] is 140 nM; in experiment [2], 920 nM; in experiment [3] it was 210 nM; in experiment [4] it was 80 nM. The “Ratio IC50” value in experiment [6] was determined as 8.
On to `Cn1c2ccccc2c2c(NCCCN)nc3ccc(F)cc3c21`, for which the IC50 in experiment [1] was found to be 170 nM; in experiment [2] it was 980 nM; in experiment [3] it was 250 nM; in experiment [4], 110 nM.
On the same counts, the results for `CCN(CC)CCCC(C)Nc1nc2ccccc2c2c1c1ccccc1n2C` (configuration not stated) are 70 nM, 500 nM, 110 nM and 50 nM.
On the same counts, the results for `Cn1c2ccccc2c2c(NCCCN)nc3ccccc3c21` are 110 nM, 950 nM, 180 nM and 60 nM.
With `NCCCCNc1nc2ccccc2c2[nH]c3ccccc3c12`, the IC50 is 700 nM in experiment [1], 1140 nM in experiment [2], 1160 nM in experiment [3] and 1060 nM in experiment [4].
Take `CN(C)CCCNc1nc2ccc(Cl)cc2c2c1c1ccccc1n2C`: the IC50 in experiment [1] was 80 nM; in experiment [2], 820 nM; in experiment [3], 570 nM; in experiment [4], 100 nM. In experiment [5], this molecule came in with a K of 4.84 ×10⁶ L/mol.
On to `COc1ccc2nc(NCCCN)c3c4ccccc4n(C)c3c2c1`, for which the IC50 in experiment [1] came to 100 nM; in experiment [2], 100 nM; in experiment [3] it was 110 nM; in experiment [4], 10 nM.
`CC(CN)CNc1nc2ccc(Cl)cc2c2[nH]c3ccccc3c12` (configuration not stated): the IC50 in experiment [1] was 620 nM.
For `NCCCNc1nc2ccc(Cl)cc2c2[nH]c3ccccc3c12`, the IC50 in experiment [1] is 560 nM.
As for `c1ccc(CNc2nc3ccccc3c3[nH]c4ccccc4c23)cc1`, the IC50 was found to be 770 nM in experiment [1], 8040 nM in experiment [2], 1990 nM in experiment [3] and 1460 nM in experiment [4].
Consider `OCCCNc1nc2ccccc2c2[nH]c3ccccc3c12`, for which the IC50 is 380 nM in experiment [1], 860 nM in experiment [2], 2210 nM in experiment [3] and 260 nM in experiment [4]. For the same molecule, the “Ratio IC50” value in experiment [7] is on record as 7.
Take `c1ccc2c(c1)nc(N1CCOCC1)c1c3ccccc3[nH]c21`: the IC50 in experiment [1] was 9430 nM.
On to `NCCCNc1nc2ccccc2c2[nH]c3ccccc3c12`, for which the IC50 worked out at 120 nM in experiment [1], 1050 nM in experiment [2], 170 nM in experiment [3] and 260 nM in experiment [4].
For `NCCCNc1nc2ccc(Br)cc2c2[nH]c3ccccc3c12`, the IC50 in experiment [1] came out at 650 nM.
